From the NIST ThermoML archive (doi:10.1016/j.fluid.2006.02.023) come the findings set out here.

± gives the expanded uncertainty stated by the source.

The conditions of this data set: 303.15 K; 101.33 kPa; Liquid.
Broadly, the mass density is mass per unit of volume. The term speed of sound denotes how fast a sound wave travels through the sample. In general, viscosity refers to the internal friction of a fluid under shear. As for `C1COCO1` [1,3-dioxolane], the mass density amounted to 1051.8 ± 1.2 kg/m3, the speed of sound is 1288.5 ± 2.6 m/s and the viscosity is 0.5487 ± 0.03 mPa·s.

With `CC(C)(C)O` [2-methylpropan-2-ol], the mass density is 775.1 ± 0.9 kg/m3, the speed of sound is 1078.8 ± 2.3 m/s and the viscosity worked out at 3.099 ± 0.14 mPa·s.

`CC(C)CCO` [3-methylbutan-1-ol]: the mass density turned out to be 803.2 ± 0.9 kg/m3, the speed of sound turned out to be 1197 ± 2.5 m/s and the viscosity is on record as 3.111 ± 0.14 mPa·s.

Consider `CCCCO` [butan-1-ol], for which the mass density stood at 802.1 ± 0.9 kg/m3, the speed of sound was 1196.6 ± 2.5 m/s and the viscosity worked out at 2.54 ± 0.11 mPa·s.

Take `CCC(C)O` (centres undefined) [butan-2-ol]: the mass density came to 799.2 ± 0.9 kg/m3, the speed of sound is on record as 1168.9 ± 2.4 m/s and the viscosity was determined as 2.339 ± 0.11 mPa·s.

`CCO` [ethanol]: the mass density is reported as 784.4 ± 0.9 kg/m3, the speed of sound was found to be 1144.3 ± 2.4 m/s and the viscosity worked out at 0.9675 ± 0.048 mPa·s.

Consider `CO` [methanol], for which the mass density is recorded as 782.4 ± 0.9 kg/m3, the speed of sound amounted to 1088.5 ± 2.3 m/s and the viscosity was determined as 0.5041 ± 0.028 mPa·s.

For `CCCO` [propan-1-ol], the mass density is listed as 795.8 ± 0.9 kg/m3, the speed of sound is 1182.6 ± 2.5 m/s and the viscosity came to 1.663 ± 0.078 mPa·s.

As to `CC(C)O` [propan-2-ol], the mass density worked out at 777.3 ± 0.9 kg/m3, the speed of sound is given as 1126.6 ± 2.4 m/s and the viscosity is on record as 1.614 ± 0.076 mPa·s.

With `O` [water], the speed of sound turned out to be 1505.2 ± 3 m/s and the viscosity is listed as 0.7975 ± 0.041 mPa·s.
